Measured values reported in patent US10947271B2, “Antibacterial agents” (THE UNIVERSITY OF QUEENSLAND, priority 2014, dated 2021).

Experiments:
Format in all cases: cell-based
Conditions in all cases: 24 h incubation, visual reading
[1] = test system: Enterococcus faecium MDR Van A ATCC 51559; experiment: MIC assay, E. faecium MDR Van A ATCC 51559
Procedure: (§1) Antimicrobial activity of compounds was tested against a number of bacterial strains, including Staphylococcus aureus (MRSA ATCC 43300, GISA NRS17, VISA NRS1, MRSA clinical isolate, daptomycin resistant clinical isolate), Streptococcus pneumoniae (MDR ATCC 700677), Enterococcus faecalis (VanA clinical isolate) and Enterococcus faecium (MDR Van A ATCC 51559).
(§2) All compounds were prepared to 160 μg/ml solution in water from a stock solution of 1 mM concentration.
(§3) The compounds, along with standard antibiotics were serially diluted twofold across the wells of 96-well non-binding surface plates (NBS, Corning). Standards ranged from 64 μg/ml to 0.03 μg/ml and compounds from 8 μg/ml to 0.003 μg/ml with final volumes of 50 μL per well. Gram positive bacteria were cultured in Muller Hinton broth (MHB) (Bacto laboratories, Cat. no. 211443) at 37° C. overnight. A sample of each culture was then diluted 40-fold in fresh MHB broth and incubated at 37° C. for 2-3 hrs. The resultant mid-log phase cultures were diluted to the final concentration of 5×10e5 CFU/mL, then 50 μL was added to each well of the compound-containing 96-well plates. All the plates were covered and incubated at 37° C. for 24 h. MICs were the lowest concentration showing no visible growth.
(§4) MICs were determined visually at 24 hr incubation and the MIC was defined as the lowest concentration with which no growth was visible after incubation. Both MIC and MBC were determined by visual inspection only.

[2] = test system: Staphylococcus aureus MRSA ATCC 43300; experiment: MIC assay, S. aureus MRSA ATCC 43300
Procedure: as §1, §2, §3, §4

[3] = test system: Streptococcus pneumoniae MDR ATCC 700677; experiment: MIC assay, S. pneumoniae MDR ATCC 700677
Procedure: as §1, §2, §3, §4

Structure (SMILES) | Minimum Inhibitory Concentration (MIC) E. faecium ATCC51559 [1] | Minimum Inhibitory Concentration (MIC) Staph. aureus ATCC43300 [2] | Minimum Inhibitory Concentration (MIC) S. pneumoniae ATCC 700677 [3]
CCCCCCCCCCCCCC(=O)N[C@@H](CCCCN)C(=O)N[C@@H](CCCCNC(=O)[C@H]1NC(=O)[C@H]2NC(=O)[C@H](NC(=O)[C@@H]3NC(=O)[C@H](CC(N)=O)NC(=O)[C@H](NC(=O)[C@@H](CC(C)C)NC)[C@H](O)c4ccc(c(Cl)c4)Oc4cc3cc(c4O[C@@H]3O[C@H](CO)[C@@H](O)[C@H](O)[C@H]3O[C@H]3C[C@](C)(N)[C@H](O)[C@H](C)O3)Oc3ccc(cc3Cl)[C@H]2O)c2ccc(O)c(c2)-c2c(O)cc(O)cc21)C(=O)NC [MCC_000627] | xx (xx = 1-4) | xxxxx (xxxxx = <0.01) | xxxxx (xxxxx = <0.01)
CNC(=O)[C@H](CCCCNC(=O)[C@H]1NC(=O)[C@H]2NC(=O)[C@H](NC(=O)[C@@H]3NC(=O)[C@H](CC(N)=O)NC(=O)[C@H](NC(=O)[C@@H](CC(C)C)NC)[C@H](O)c4ccc(c(Cl)c4)Oc4cc3cc(c4O[C@@H]3O[C@H](CO)[C@@H](O)[C@H](O)[C@H]3O[C@H]3C[C@](C)(N)[C@H](O)[C@H](C)O3)Oc3ccc(cc3Cl)[C@H]2O)c2ccc(O)c(c2)-c2c(O)cc(O)cc21)NC(=O)[C@H](CCCCN)NC(=O)[C@H](CCCCN)NS(=O)(=O)c1ccc(C)cc1 [MCC_000764] | x (x = >4) | xx (xx = 1-4) | xx (xx = 1-4)
CCCCCCCCCCCC(=O)N[C@@H](CCCCN)C(=O)N[C@@H](CCCCN)C(=O)N[C@@H](CCCCN)C(=O)N[C@@H](CCCCNC(=O)[C@H]1NC(=O)[C@H]2NC(=O)[C@H](NC(=O)[C@@H]3NC(=O)[C@H](CC(N)=O)NC(=O)[C@H](NC(=O)[C@@H](CC(C)C)NC)[C@H](O)c4ccc(c(Cl)c4)Oc4cc3cc(c4O[C@@H]3O[C@H](CO)[C@@H](O)[C@H](O)[C@H]3O[C@H]3C[C@](C)(N)[C@H](O)[C@H](C)O3)Oc3ccc(cc3Cl)[C@H]2O)c2ccc(O)c(c2)-c2c(O)cc(O)cc21)C(=O)O [MCC_000348] | xxx (xxx = 0.1-<1) | xxxxx (xxxxx = <0.01) | xxxxx (xxxxx = <0.01)
CCCCCOc1ccc(C(=O)NC(CCCCN)C(=O)NC(CCCCN)C(=O)NCCCNC(=O)C2NC(=O)C3NC(=O)C(NC(=O)C4NC(=O)C(CC(N)=O)NC(=O)C(NC(=O)C(CC(C)C)NC)C(O)c5ccc(c(Cl)c5)Oc5cc4cc(c5OC4OC(CO)C(O)C(O)C4OC4CC(C)(N)C(O)C(C)O4)Oc4ccc(cc4Cl)C3O)c3ccc(O)c(c3)-c3c(O)cc(O)cc32)cc1 (stereo not drawn) [MCC_005361] | xx (xx = 1-4) | xxxx (xxxx = 0.01-<0.1) | xxxx (xxxx = 0.01-<0.1)
CCCCCCCCCC(=O)NC(CCCCN(C)C)C(=O)NCCCNC(=O)C1NC(=O)C2NC(=O)C(NC(=O)C3NC(=O)C(CC(N)=O)NC(=O)C(NC(=O)C(CC(C)C)NC)C(O)c4ccc(c(Cl)c4)Oc4cc3cc(c4OC3OC(CO)C(O)C(O)C3OC3CC(C)(N)C(O)C(C)O3)Oc3ccc(cc3Cl)C2O)c2ccc(O)c(c2)-c2c(O)cc(O)cc21 (stereo not drawn) [MCC_007339] | xx (xx = 1-4) | xxxx (xxxx = 0.01-<0.1) | xxxx (xxxx = 0.01-<0.1)
CCCCCCCCCCCC(=O)NC(CCCCN)C(=O)NC(CCCCN)C(=O)NC(CCCCNC(=O)C1NC(=O)C2NC(=O)C(NC(=O)C3NC(=O)C(CC(N)=O)NC(=O)C(NC(=O)C(CC(C)C)NC)C(O)c4ccc(c(Cl)c4)Oc4cc3cc(c4OC3OC(CO)C(O)C(O)C3OC3CC(C)(N)C(O)C(C)O3)Oc3ccc(cc3Cl)C2O)c2ccc(O)c(c2)-c2c(O)cc(O)cc21)C(=O)NC (stereo not drawn) [MCC_000493] | xx (xx = 1-4) | xxxxx (xxxxx = <0.01) | xxxxx (xxxxx = <0.01)
CCCCCCCCCC(=O)NC(CCCNC(=N)N)C(=O)NC(CCCCN)C(=O)NCCCNC(=O)C1NC(=O)C2NC(=O)C(NC(=O)C3NC(=O)C(CC(N)=O)NC(=O)C(NC(=O)C(CC(C)C)NC)C(O)c4ccc(c(Cl)c4)Oc4cc3cc(c4OC3OC(CO)C(O)C(O)C3OC3CC(C)(N)C(O)C(C)O3)Oc3ccc(cc3Cl)C2O)c2ccc(O)c(c2)-c2c(O)cc(O)cc21 (stereo not drawn) [MCC_005487] | xxx (xxx = 0.1-<1) | xxxxx (xxxxx = <0.01) | xxxx (xxxx = 0.01-<0.1)
CNC(=O)C(CCCCNC(=O)C1NC(=O)C2NC(=O)C(NC(=O)C3NC(=O)C(CC(N)=O)NC(=O)C(NC(=O)C(CC(C)C)NC)C(O)c4ccc(c(Cl)c4)Oc4cc3cc(c4OC3OC(CO)C(O)C(O)C3OC3CC(C)(N)C(O)C(C)O3)Oc3ccc(cc3Cl)C2O)c2ccc(O)c(c2)-c2c(O)cc(O)cc21)NC(=O)C(CCCCN)NC(=O)C(CCCCN)NC(=O)CCCCCCCCc1ccccc1 (stereo not drawn) [MCC_000509] | xx (xx = 1-4) | xxxx (xxxx = 0.01-<0.1) | xxxxx (xxxxx = <0.01)
CCCCCCCN1CCC(C(=O)N[C@@H](CCCCN)C(=O)N[C@@H](CCCCN)C(=O)N[C@@H](CCCCNC(=O)[C@H]2NC(=O)[C@H]3NC(=O)[C@H](NC(=O)[C@@H]4NC(=O)[C@H](CC(N)=O)NC(=O)[C@H](NC(=O)[C@@H](CC(C)C)NC)[C@H](O)c5ccc(c(Cl)c5)Oc5cc4cc(c5O[C@@H]4O[C@H](CO)[C@@H](O)[C@H](O)[C@H]4O[C@H]4C[C@](C)(N)[C@H](O)[C@H](C)O4)Oc4ccc(cc4Cl)[C@H]3O)c3ccc(O)c(c3)-c3c(O)cc(O)cc32)C(N)=O)CC1 [MCC_004820] | x (x = >4) | xxxx (xxxx = 0.01-<0.1) | xxx (xxx = 0.1-<1)
CCCCCCCCCCC(=O)N[C@@H](CCCCN)C(=O)NCCNC(=O)[C@H]1NC(=O)[C@H]2NC(=O)[C@H](NC(=O)[C@@H]3NC(=O)[C@H](CC(N)=O)NC(=O)[C@H](NC(=O)[C@@H](CC(C)C)NC)[C@H](O)c4ccc(c(Cl)c4)Oc4cc3cc(c4O[C@@H]3O[C@H](CO)[C@@H](O)[C@H](O)[C@H]3O[C@H]3C[C@](C)(N)[C@H](O)[C@H](C)O3)Oc3ccc(cc3Cl)[C@H]2O)c2ccc(O)c(c2)-c2c(O)cc(O)cc21 [MCC_005163] | x (x = >4) | xxxxx (xxxxx = <0.01) | xxxx (xxxx = 0.01-<0.1)
CCCCCCCCC(=O)N[C@@H](CCCCN)C(=O)N[C@@H](CCCCN)C(=O)NCCCNC(=O)[C@H]1NC(=O)[C@H]2NC(=O)[C@H](NC(=O)[C@@H]3NC(=O)[C@H](CC(N)=O)NC(=O)[C@H](NC(=O)[C@@H](CC(C)C)NC)[C@H](O)c4ccc(c(Cl)c4)Oc4cc3cc(c4O[C@@H]3O[C@H](CO)[C@@H](O)[C@H](O)[C@H]3O[C@H]3C[C@](C)(N)[C@H](O)[C@H](C)O3)Oc3ccc(cc3Cl)[C@H]2O)c2ccc(O)c(c2)-c2c(O)cc(O)cc21 [MCC_005199] | xx (xx = 1-4) | xxxx (xxxx = 0.01-<0.1) | xxxx (xxxx = 0.01-<0.1)
